Publication PMC12655579, “Cocrystallization of Ezetimibe with Organic Acids: Stoichiometric Optimization for Improved Solubility and Bioavailability” (Pharmaceutics, 2025)

What was measured:
[1] = In vitro dissolution (USP apparatus II, paddle); type: physicochemical; conditions: 0.45% w/v SLS in 0.05 M acetate buffer pH 4.5, 37 °C
Method: The samples were mixed in a 5 mL tube with 2 mL of the solvent at a concentration of 1 mg/mL using a multi-mixer (SLRM-3, Seoulin Biosciences, Pangyo, Republic of Korea) for 48 h at 25 °C. The mixtures were then centrifuged at 13,000 rpm for 10 min (Eppendorf 5425R, Hamburg, Germany) and manually filtered using a 0.45 μm polytetrafluoroethylene (PTFE-H) syringe filter. The absorbance of the filtered samples at 233 nm was measured using a UV-VIS spectrophotometer. Similarly, dissolution was assessed using the USP dissolution apparatus II (paddle) (Varian 705 DS, Cary, NC, USA) at 50 rpm in 500 mL of 0.45% w/v SLS in 0.05 M acetate buffer (pH 4.5) at 37 ± 0.5 °C. The cocrystal samples (equivalent to 10 mg ezetimibe) were weighed and added into the dissolution vessel (n = 3). Aliquots were collected at predetermined time points: 5 min, 10 min, 15 min, 30 min, 45 min, 60 min, 90 min, and 120 min. The displaced volume was replenished with fresh buffer after each sampling. The collected samples were filtered through a 0.45 µm RC syringe filter and subjected to UV-VIS spectrophotometer.

[2] = In vivo pharmacokinetics after single oral gavage; conditions: rat, male Sprague Dawley rats, fasted, plasma, table prints dose 10 mg/kg for all groups (methods: CRYS101 10 mg/kg, CRYS102-104 30 mg/kg)
Method: The stock standard solution was prepared by dissolving ezetimibe at 0.5 mg/mL in 40% MeOH. The absorbance of the standards was measured at 233 nm using UV-VIS spectrophotometer (Optizen pop, Mecasys®, Seoul, Republic of Korea). The bioanalysis was performed using validated LC-MS/MS methods with MRM detection (details in Supplementary Materials). The method was developed using an Agilent 1290 Infinity II BioLC system coupled with an Agilent 6495D Triple-Quadrupole mass spectrometer, employing electrospray ionization (ESI). Chromatographic separation was achieved on a Kintex C18 column (2.6 μm, 100 × 3 mm) maintained at 30 °C, using an isocratic mobile phase of water-acetonitrile (20:80 v/v) at 0.25 mL/min flow rate. The run time was optimized to 5 min with a 2 μL injection volume. Mass spectrometric detection utilized multiple reaction monitoring (MRM) in negative polarity mode for ezetimibe ([M − H]^− m/z 408.1 → 271.1) and positive mode for the internal standard itraconazole ([M + H]^+ m/z 705.2 → 391.6). Detailed description is included in the Supplementary Materials.
In vivo pharmacokinetic profile of ezetimibe cocrystal formulations was assessed in male Sprague Dawley rats (n = 4 per group, 7–8-week-old, mean weight 271.1 g). The SD rats were obtained from G-Bio (Gwangju, Republic of Korea). They were maintained under a 12 h light/dark cycle and provided with free access to food and water. The animal experimental protocol was approved by the Institutional Animal Care and Use Committee (IACUC) of Mokpo National University (Mokpo, Republic of Korea; approval no. MNU-IACUC-2025-015).
The rats were fasted overnight before oral administration, and four formulation groups received single oral doses through gavage: Group 1 (CRYS101) at 10 mg/kg and Groups 2–4 (CRYS102-104) at 30 mg/kg. Blood samples (200 μL) were collected from the femoral artery at predetermined time points after the administration. The collected samples were centrifuged at 16,000× g for 5 min at 4 °C, and the plasma was stored at −70 °C until analysis. The plasma samples analyzed using a validated UPLC-MS/MS method with 1 ng/mL lower quantification limit.

In vitro release at 120 min [1]: 45% | AUC(0-inf) ([2]; SD not determined): 41.8 ng·h/mL | AUC(0-t) ([2]; n = 4/group, mean ± SD): 11 ± 8.63 ng·h/mL | Cmax ([2]; n = 4/group, mean ± SD): 6.73 ± 4.29 ng/mL | Tmax ([2]; n = 4/group, mean ± SD): 1.33 ± 0.76 h
Compound: O=C1[C@H](CC[C@H](O)c2ccc(F)cc2)[C@@H](c2ccc(O)cc2)N1c1ccc(F)cc1 [Ezetimibe]
